Experimental data taken from patent publication US20250340556A1, “PYRIMIDOPYRIMIDONE COMPOUNDS AND METHODS OF USE THEREOF” (Soltego, Inc., priority 2022, published 2025).
Read-outs that look alike come from different tables or passages of the source.

Columns and labels:
SIK3 (h) = SIK3 (h) (Homo sapiens (Human), UniProt Q9Y2K2); experiment: SIK3 kinase activity, Eurofins KinaseProfiler ([γ-33P]-ATP filter assay); type: biochemical
Procedure: (§1) SIK1, 2 and 3 kinase activity was assessed using a Eurofins Cerep S.A. (‘Eurofins’) KinaseProfiler. All compounds were prepared to 50× final assay concentration in 100% DMSO. This working stock of the compound was added to the assay well as the first component in the reaction, followed by the remaining components as detailed in the general assay protocols below. In the standard KinaseProfiler service, there is no pre-incubation step between the compound and the kinase prior to initiation of the reaction. The positive control well contains all components of the reaction, except the compound of interest; however, DMSO (at a final concentration of 2%) is included in these wells to control for solvent effects. The blank wells contain all components of the reaction, with a reference inhibitor replacing the compound of interest. This abolishes kinase activity and establishes the base-line (0% kinase activity remaining).
(§2) SIK3 (h) was incubated with 8 mM MOPS pH 7.0, 0.2 mM EDTA, 100 μM […], 10 mM Magnesium acetate and [γ-33P-ATP](specific activity and concentration as required). The reaction was initiated by the addition of the Mg/ATP mix. After incubation for 40 minutes at room temperature, the reaction is stopped by the addition of phosphoric acid to a concentration of 0.5%, 10 LL of the reaction was then spotted onto a P30 filtermat and washed four times for 4 minutes in 0.425% phosphoric acid and once in methanol prior to drying and scintillation counting.

SIK (h) / SIK1 = SIK (h) / SIK1 (Homo sapiens (Human), UniProt P57059); experiment: SIK1 kinase activity, Eurofins KinaseProfiler ([γ-33P]-ATP filter assay); type: biochemical
Procedure: as §1
as §2, with “SIK” for “SIK3”, “[γ-33P]-ATP (specific” for “[γ-33P-ATP](specific”, “was” for “is”, “μL” for “LL”

SIK2 (h) = SIK2 (h) (Homo sapiens (Human), UniProt Q9H0K1); experiment: SIK2 kinase activity, Eurofins KinaseProfiler ([γ-33P]-ATP filter assay); type: biochemical
Procedure: as §1
as §2, with “SIK2” for “SIK3”, “was” for “is”, “μL” for “LL”

[1] = ester bond
SIK1 = SIK1 (Homo sapiens (Human), UniProt P57059); experiment: cell-based
Chain of SIK1 (P57059 whole entry): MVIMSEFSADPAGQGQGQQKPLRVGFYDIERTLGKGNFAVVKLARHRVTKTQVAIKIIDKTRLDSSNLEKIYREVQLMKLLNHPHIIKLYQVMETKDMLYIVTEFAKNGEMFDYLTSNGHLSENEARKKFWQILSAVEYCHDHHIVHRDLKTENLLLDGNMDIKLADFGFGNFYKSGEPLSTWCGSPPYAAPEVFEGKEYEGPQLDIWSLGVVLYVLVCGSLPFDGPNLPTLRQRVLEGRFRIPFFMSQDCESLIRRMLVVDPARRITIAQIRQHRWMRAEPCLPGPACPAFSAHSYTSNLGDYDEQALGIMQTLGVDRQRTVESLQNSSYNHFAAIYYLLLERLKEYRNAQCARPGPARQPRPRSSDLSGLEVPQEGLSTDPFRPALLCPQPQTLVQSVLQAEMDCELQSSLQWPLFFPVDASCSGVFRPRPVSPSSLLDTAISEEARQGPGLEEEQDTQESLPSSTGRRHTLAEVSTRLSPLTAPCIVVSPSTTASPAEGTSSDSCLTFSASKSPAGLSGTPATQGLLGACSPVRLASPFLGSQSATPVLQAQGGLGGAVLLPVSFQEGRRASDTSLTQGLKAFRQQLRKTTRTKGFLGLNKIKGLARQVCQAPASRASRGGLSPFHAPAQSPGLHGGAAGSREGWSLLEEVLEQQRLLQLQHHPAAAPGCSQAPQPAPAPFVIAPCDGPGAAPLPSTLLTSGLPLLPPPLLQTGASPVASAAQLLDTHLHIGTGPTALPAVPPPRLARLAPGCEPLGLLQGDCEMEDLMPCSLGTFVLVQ

B16 4A5 cells = experiment: B16 4A5 cell viability, MTS assay; type: cell-based, mouse; details: SDS 0.05%, 72 h, compared to untreated cells
Procedure: B16 4A5 cells were seeded in 24-well plates at 20,000 cells/well, 24 h before the beginning of the treatment with test compounds at 5 concentrations, in triplicates (n=3). […] Additionally, DMSO at 0.1%, used for solubilization of the test compounds, was tested in parallel. The treatments were performed in culture medium containing only 1% of FBS. […] The effects of the compounds on B16 4A5 viability was assessed. To this purpose, cells were incubated during 72 h with 5 concentrations of the compounds, were left untreated, treated with SDS or with DMSO 0.1%.

[2] = Table 5, macrocycle precursors, read-out: IC50 nM SIK2
[3] = Table 6, macrocycles, read-out: IC50 nM SIK2

Q: For `COC(=O)CCCN1C(=O)N(c2c(C)cccc2C)Cc2cnc(Nc3ccc(N4CCN(C)CC4)c(CO)c3)nc21` [SLT-019], which IC50 (SIK3 (h); Table 5, macrocycle precursors) is on record?
A: 8 nM

Q: What about the IC50 (SIK (h) / SIK1; Table 5, macrocycle precursors) of the same molecule?
A: 2 nM

Q: And the IC50 (SIK2 (h); [2])?
A: 3 nM

Q: Which ring closure, isolated yield ([1]; from Cc1cccc(C)c1N1Cc2cnc(Nc3ccc(N4CCN(C)CC4)c(C(=O)O)c3)nc2N(CCCO)C1=O, 13-membered ring, EDC.HCl/HOBt/DMAP/3A MS, DCM, 7.99 mM, 50.0 °C, 16.0 h) does the source give for `Cc1cccc(C)c1N1Cc2cnc3nc2N(CCCOC(=O)c2cc(ccc2N2CCN(C)CC2)N3)C1=O` [SLT-041] here?
A: 30%

Q: And the EC50 (SIK1)?
A: 10.5 nM

Q: With `Cc1cccc(C)c1N1Cc2cnc3nc2N(C/C=C/CC(=O)OCc2cc(ccc2N2CCN(C)CC2)N3)C1=O` [SLT-061] as the molecule, how does the IC50 (SIK2 (h); [3]) read?
A: 2 nM

Q: What does the source list for `Cc1cccc(C)c1N1Cc2cnc3nc2N(CCCCC(=O)OCc2cc(ccc2N2CCN(C)CC2)N3)C1=O` [SLT-033]?
A: ring closure, isolated yield ([1]; from Cc1cccc(C)c1N1Cc2cnc(Nc3ccc(N4CCN(C)CC4)c(CO)c3)nc2N(CCCCC(=O)O)C1=O, 15-membered ring, DCC/DMAP/3A MS, DCM/DMF, 7.69 mM, 25.0 °C): 14%; EC50 (SIK1): 6.08 nM; IC50 (SIK2 (h); [3]): 0.8 nM

Q: With `Cc1cccc(C)c1N1Cc2cnc(Nc3ccc(N4CCN(C)CC4)c(CO)c3)nc2N(CCCC(=O)O)C1=O` [SLT-025] as the molecule, how does the IC50 (SIK3 (h); Table 5, macrocycle precursors) read?
A: 21 nM

Q: What about the IC50 (SIK (h) / SIK1; Table 5, macrocycle precursors) of the same molecule?
A: 3 nM

Q: And the IC50 (SIK2 (h); [2])?
A: 6 nM

Q: For `Cc1cccc(C)c1N1Cc2cnc3nc2N(CCCCCOC(=O)c2cc(ccc2N2CCN(C)CC2)N3)C1=O` [SLT-038], which ring closure, isolated yield ([1]; from Cc1cccc(C)c1N1Cc2cnc(Nc3ccc(N4CCN(C)CC4)c(C(=O)O)c3)nc2N(CCCCCO)C1=O, 15-membered ring, 2,4,6-trichlorobenzoyl chloride/TEA, DMAP, toluene/DMF, 5.0 mM, 110.0 °C, 16.0 h) is on record?
A: 6%

Q: What about the EC50 (SIK1) of the same molecule?
A: 4.37 nM

Q: What about the IC50 (SIK2 (h); [3]) of the same molecule?
A: 1 nM

Q: For `COc1cc(F)c2cc1Nc1ncc3c(n1)N(CCCC(=O)OC2)C(=O)N(c1c(C)cccc1C)C3`, which ring closure, isolated yield ([1]; from COc1cc(F)c(CO)cc1Nc1ncc2c(n1)N(CCCC(=O)O)C(=O)N(c1c(C)cccc1C)C2, 14-membered ring, DCC/DMAP/3A MS, DCM/DMF, 6.89 mM, 25.0 °C, 16.0 h) is on record?
A: 57%

Q: With `CCCCCCCCCCCCOS(=O)(=O)[O-].[Na+]` [SDS, reference compound] as the molecule, how does the viability of cells (B16 4A5 cells) read?
A: strongly and significantly diminished

Q: For `Cc1cccc(C)c1N1Cc2cnc(Nc3ccc(N4CCN(C)CC4)c(CO)c3)nc2N(CCC(=O)O)C1=O` [SLT-020], which IC50 (SIK3 (h); Table 5, macrocycle precursors) is on record?
A: 43 nM

Q: And the IC50 (SIK (h) / SIK1; Table 5, macrocycle precursors)?
A: 5 nM

Q: What about the IC50 (SIK2 (h); [2]) of the same molecule?
A: 10 nM

Q: With `Cc1cccc(C)c1N1Cc2cnc3nc2N(CCCOC(=O)C(C)c2cc(ccc2N2CCN(C)CC2)N3)C1=O` (stereo not drawn) [SLT-071] as the molecule, how does the IC50 (SIK2 (h); [3]) read?
A: 3 nM

Q: Which ring closure, isolated yield ([1]; from Cc1cccc(C)c1N1Cc2cnc(Nc3ccc(N4CCN(C)CC4)c(CC(=O)O)c3)nc2N(CCCCO)C1=O, 15-membered ring, 2,4,6-trichlorobenzoyl chloride/TEA, DMAP, toluene/DMF, 5.0 mM, 110.0 °C, 16.0 h) does the source give for `Cc1cccc(C)c1N1Cc2cnc3nc2N(CCCCOC(=O)Cc2cc(ccc2N2CCN(C)CC2)N3)C1=O` [SLT-059] here?
A: 13%

Q: And the IC50 (SIK (h) / SIK1; Table 6, macrocycles)?
A: 286 nM

Q: And the IC50 (SIK2 (h))?
A: > 500 nM

Q: And the IC50 (SIK2 (h); [3])?
A: 250 nM

Q: With `COc1cc(Br)c2cc1Nc1ncc3c(n1)N(CCCC(=O)OC2)C(=O)N(c1c(C)cccc1C)C3` [SLT-058] as the molecule, how does the IC50 (SIK3 (h); Table 6, macrocycles) read?
A: 339 nM

Q: What about the ring closure, isolated yield ([1]; from COc1cc(Br)c(CO)cc1Nc1ncc2c(n1)N(CCCC(=O)O)C(=O)N(c1c(C)cccc1C)C2, 14-membered ring, DCC/DMAP/3A MS, DCM/DMF, 4.96 mM, 25.0 °C, 16.0 h) of the same molecule?
A: 20%

Q: And the IC50 (SIK (h) / SIK1; Table 6, macrocycles)?
A: 26 nM

Q: And the IC50 (SIK2 (h); [3])?
A: 201 nM

Q: With `Cc1cccc(C)c1N1Cc2cnc3nc2N(C/C=C\C(=O)OCc2cc(ccc2N2CCN(C)CC2)N3)C1=O` [SLT-073] as the molecule, how does the IC50 (SIK2 (h)) read?
A: 0.7 nM

Q: For `Cc1cccc(C)c1N1Cc2cnc3nc2N(C/C=C/CCOC(=O)c2cc(ccc2N2CCN(C)CC2)N3)C1=O` [SLT-079], which IC50 (SIK2 (h); [3]) is on record?
A: 1 nM

Q: For `Cc1cccc(C)c1N1Cc2cnc3nc2N(CCCCOC(=O)C(C)c2cc(ccc2N2CCN(C)CC2)N3)C1=O` (stereo not drawn) [SLT-070], which IC50 (SIK2 (h); [3]) is on record?
A: 2 nM

Q: With `Cc1cccc(C)c1N1Cc2cnc3nc2N(C/C=C/COC(=O)Cc2cc(ccc2N2CCN(C)CC2)N3)C1=O` [SLT-068] as the molecule, how does the IC50 (SIK2 (h); [3]) read?
A: 17 nM

Q: For `Cc1cccc(C)c1N1Cc2cnc3nc2N(C/C=C\CC(=O)OCc2cc(ccc2N2CCN(C)CC2)N3)C1=O` [SLT-062], which IC50 (SIK2 (h)) is on record?
A: 0.8 nM

Q: Which ring closure, isolated yield ([1]; from COc1cc(N2CCN(C)CC2)c(CO)cc1Nc1ncc2c(n1)N(CCCC(=O)O)C(=O)N(c1c(C)cccc1C)C2, 14-membered ring, DCC/DMAP/3A MS, DCM/DMF, 6.69 mM, 25.0 °C, 16.0 h) does the source give for `COc1cc(N2CCN(C)CC2)c2cc1Nc1ncc3c(n1)N(CCCC(=O)OC2)C(=O)N(c1c(C)cccc1C)C3` here?
A: 6%

Q: Which IC50 (SIK3 (h); Table 5, macrocycle precursors) does the source give for `Cc1cccc(C)c1N1Cc2cnc(Nc3ccc(N4CCN(C)CC4)c(CO)c3)nc2N(CCCCC(=O)O)C1=O` [SLT-027] here?
A: 21 nM

Q: And the IC50 (SIK (h) / SIK1; Table 5, macrocycle precursors)?
A: 2 nM

Q: And the EC50 (SIK1)?
A: 408 nM

Q: And the IC50 (SIK2 (h); [2])?
A: 5 nM
